# Test results as given in patent US11339128B2 (Firmenich Incorporated, priority 2014, dated 2022).
# Target: T1, T1R2/T1R3 taste receptor (Homo sapiens, UniProt Q7RTX0+Q8TE23)
# T1 sequence (Q8TE23 20-839): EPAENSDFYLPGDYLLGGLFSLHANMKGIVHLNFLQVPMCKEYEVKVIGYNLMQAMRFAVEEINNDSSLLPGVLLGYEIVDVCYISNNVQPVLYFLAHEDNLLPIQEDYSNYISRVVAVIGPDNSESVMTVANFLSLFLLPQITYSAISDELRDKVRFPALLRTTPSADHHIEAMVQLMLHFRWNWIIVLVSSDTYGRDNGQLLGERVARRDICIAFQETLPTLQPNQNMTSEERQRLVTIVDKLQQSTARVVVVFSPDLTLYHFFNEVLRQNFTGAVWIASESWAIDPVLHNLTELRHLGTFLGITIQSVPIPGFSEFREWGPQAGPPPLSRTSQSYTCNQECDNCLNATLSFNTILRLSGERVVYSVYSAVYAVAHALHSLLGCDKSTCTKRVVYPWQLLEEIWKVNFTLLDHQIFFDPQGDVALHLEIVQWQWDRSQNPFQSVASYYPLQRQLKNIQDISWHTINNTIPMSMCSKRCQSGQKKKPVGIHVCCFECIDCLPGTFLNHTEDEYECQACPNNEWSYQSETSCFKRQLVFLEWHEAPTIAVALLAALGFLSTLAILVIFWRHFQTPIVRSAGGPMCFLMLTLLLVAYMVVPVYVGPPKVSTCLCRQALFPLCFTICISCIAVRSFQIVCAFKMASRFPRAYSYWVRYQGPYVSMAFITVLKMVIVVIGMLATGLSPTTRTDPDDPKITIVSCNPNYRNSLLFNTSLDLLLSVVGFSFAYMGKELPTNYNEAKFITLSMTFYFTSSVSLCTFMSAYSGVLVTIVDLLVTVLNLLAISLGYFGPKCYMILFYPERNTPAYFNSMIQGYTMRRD
# T1 sequence (Q7RTX0 21-852): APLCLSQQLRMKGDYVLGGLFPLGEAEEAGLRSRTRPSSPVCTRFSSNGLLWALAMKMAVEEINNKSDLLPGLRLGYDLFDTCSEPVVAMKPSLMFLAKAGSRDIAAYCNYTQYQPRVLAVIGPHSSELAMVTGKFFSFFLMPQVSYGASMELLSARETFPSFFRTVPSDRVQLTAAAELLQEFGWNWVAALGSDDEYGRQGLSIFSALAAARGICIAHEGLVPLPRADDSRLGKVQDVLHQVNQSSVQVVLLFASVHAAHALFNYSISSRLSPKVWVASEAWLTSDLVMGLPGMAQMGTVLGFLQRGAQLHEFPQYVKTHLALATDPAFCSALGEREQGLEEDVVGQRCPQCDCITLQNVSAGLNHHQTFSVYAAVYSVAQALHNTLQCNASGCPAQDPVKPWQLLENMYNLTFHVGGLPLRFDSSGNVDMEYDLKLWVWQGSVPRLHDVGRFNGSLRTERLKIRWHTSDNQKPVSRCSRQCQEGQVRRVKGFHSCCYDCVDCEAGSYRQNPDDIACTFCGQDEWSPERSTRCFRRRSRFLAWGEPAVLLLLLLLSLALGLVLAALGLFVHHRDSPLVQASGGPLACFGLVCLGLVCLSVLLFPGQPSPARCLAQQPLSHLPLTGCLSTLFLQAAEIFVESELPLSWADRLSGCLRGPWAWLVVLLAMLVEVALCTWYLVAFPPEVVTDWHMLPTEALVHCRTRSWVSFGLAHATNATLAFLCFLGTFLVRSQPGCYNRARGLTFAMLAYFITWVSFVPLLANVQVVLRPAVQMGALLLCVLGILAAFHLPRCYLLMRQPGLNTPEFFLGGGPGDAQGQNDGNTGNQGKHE
# Assay: Receptor-based assay: sweetener EC50 enhancement ratio with and without test compound
# Format: cell-based
# Details: 1 μM test compound; sweetener sucrose
# Procedure: Potencies (EC50 values) for the sweeteners sucrose, sucralose, and fructose were measured against the T1R2/T1R3 taste receptor. EC50 was determined using the sweetener alone and in the presence of 1 μM, 3 μM, 10 μM, or 50 μM of test compound. EC50 ratios were calculated by the ratio of potency with and without the test compound. An “A” value indicates an enhancement ratio of greater than 1 and less than 10. A “B” value indicates an enhancement ratio from 10 to 20. A “C” value indicates an enhancement ratio greater than 20.
row,SMILES,Sucrose Enhancement EC50 Ratio
1,COCC(=O)N[C@H]1CC[C@H](Oc2cccc3nc(C)c(C(=O)O)c(N)c23)CC1 [Compound 304],A (an enhancement ratio of greater than 1 and less than 10)
2,Cc1nc2cccc(O[C@H]3CC[C@H](NC(=O)COC(C)(C)C)CC3)c2c(N)c1C(=O)O [Compound 308],B (an enhancement ratio from 10 to 20)
3,Cc1nc2cccc(O[C@H]3CC[C@H](NC(=O)CO[C@H]4CC[C@H](C)CC4)CC3)c2c(N)c1C(=O)O [Compound 312],A (an enhancement ratio of greater than 1 and less than 10)
4,Cc1nc2cccc(O[C@H]3CC[C@H](NC(=O)COCC4CC4)CC3)c2c(N)c1C(=O)O [Compound 313],A (an enhancement ratio of greater than 1 and less than 10)
5,Cc1nc2cccc(O[C@H]3CC[C@H](NC(=O)COC4CCOCC4)CC3)c2c(N)c1C(=O)O [Compound 314],B (an enhancement ratio from 10 to 20)
6,CCOC(C)C(=O)N[C@H]1CC[C@H](Oc2cccc3nc(C)c(C(=O)O)c(N)c23)CC1 (some centres unmarked) [Compound 315],B (an enhancement ratio from 10 to 20)
7,CCOC(C)(C)C(=O)N[C@H]1CC[C@H](Oc2cccc3nc(C)c(C(=O)O)c(N)c23)CC1 [Compound 316],A (an enhancement ratio of greater than 1 and less than 10)
8,COCCC(=O)N[C@H]1CC[C@H](Oc2cccc3nc(C)c(C(=O)O)c(N)c23)CC1 [Compound 317],A (an enhancement ratio of greater than 1 and less than 10)
9,CCSCC(=O)N[C@H]1CC[C@H](Oc2cccc3nc(C)c(C(=O)O)c(N)c23)CC1 [Compound 318],A (an enhancement ratio of greater than 1 and less than 10)
10,Cc1nc2cccc(O[C@H]3CC[C@H](NC(=O)CCCC(C)C)CC3)c2c(N)c1C(=O)O [Compound 319],A (an enhancement ratio of greater than 1 and less than 10)
11,Cc1nc2cccc(O[C@H]3CC[C@H](NC(=O)C4CCC4)CC3)c2c(N)c1C(=O)O [Compound 320],A (an enhancement ratio of greater than 1 and less than 10)
12,Cc1nc2cccc(O[C@H]3CC[C@H](NC(=O)Cc4c[nH]cn4)CC3)c2c(N)c1C(=O)O [Compound 321],A (an enhancement ratio of greater than 1 and less than 10)
13,CCOCC(=O)N[C@H]1CC[C@H](Oc2cccc3nc(CC)c(C(=O)O)c(N)c23)CC1 [Compound 322],A (an enhancement ratio of greater than 1 and less than 10)
14,Cc1nc2cccc(O[C@H]3CC[C@H](NC(=O)CN4CCCC4)CC3)c2c(N)c1C(=O)O [Compound 323],A (an enhancement ratio of greater than 1 and less than 10)
15,Cc1nc2cccc(O[C@H]3CC[C@H](NC(=O)CN(C)C)CC3)c2c(N)c1C(=O)O [Compound 324],A (an enhancement ratio of greater than 1 and less than 10)
16,Cc1nc2cccc(O[C@H]3CC[C@H](NC(=O)Cn4ccnc4)CC3)c2c(N)c1C(=O)O [Compound 325],A (an enhancement ratio of greater than 1 and less than 10)
17,Cc1nc2cccc(O[C@H]3CC[C@H](NC(=O)COCC4CCC4)CC3)c2c(N)c1C(=O)O [Compound 326],B (an enhancement ratio from 10 to 20)
18,Cc1nc2cccc(O[C@H]3CC[C@H](NC(=O)COc4ccccc4)CC3)c2c(N)c1C(=O)O [Compound 327],A (an enhancement ratio of greater than 1 and less than 10)
19,Cc1nc2cccc(O[C@H]3CC[C@H](NC(=O)CO[C@@H]4C[C@H](C)CC[C@H]4C(C)C)CC3)c2c(N)c1C(=O)O [Compound 328],A (an enhancement ratio of greater than 1 and less than 10)
20,Cc1nc2cccc(O[C@H]3CC[C@H](NC(=O)COCCOC(C)C)CC3)c2c(N)c1C(=O)O [Compound 329],A (an enhancement ratio of greater than 1 and less than 10)

# Same assay, conditions: 3 μM test compound; sweetener sucralose
row,SMILES,Sucralose Enhancement EC50 Ratio
1,Cc1nc2cccc(O[C@H]3CC[C@H](NC(=O)COC4CCOCC4)CC3)c2c(N)c1C(=O)O [Compound 314],B (an enhancement ratio from 10 to 20)
2,Cc1nc2cccc(O[C@H]3CC[C@H](NC(=O)CN(C)C)CC3)c2c(N)c1C(=O)O [Compound 324],A (an enhancement ratio of greater than 1 and less than 10)
3,Cc1nc2cccc(O[C@H]3CC[C@H](NC(=O)Cn4ccnc4)CC3)c2c(N)c1C(=O)O [Compound 325],A (an enhancement ratio of greater than 1 and less than 10)
4,Cc1nc2cccc(O[C@H]3CC[C@H](NC(=O)COCCOC(C)C)CC3)c2c(N)c1C(=O)O [Compound 329],A (an enhancement ratio of greater than 1 and less than 10)

# Same assay, conditions: 3 μM test compound; sweetener sucrose
row,SMILES,Sucrose Enhancement EC50 Ratio
1,COCC(=O)N[C@H]1CC[C@H](Oc2cccc3nc(C)c(C(=O)O)c(N)c23)CC1 [Compound 304],B (an enhancement ratio from 10 to 20)
2,Cc1nc2cccc(O[C@H]3CC[C@H](NC(=O)CO[C@H]4CC[C@H](C)CC4)CC3)c2c(N)c1C(=O)O [Compound 312],A (an enhancement ratio of greater than 1 and less than 10)
3,Cc1nc2cccc(O[C@H]3CC[C@H](NC(=O)COCC4CC4)CC3)c2c(N)c1C(=O)O [Compound 313],C (an enhancement ratio greater than 20)
4,CCOC(C)C(=O)N[C@H]1CC[C@H](Oc2cccc3nc(C)c(C(=O)O)c(N)c23)CC1 (some centres unmarked) [Compound 315],B (an enhancement ratio from 10 to 20)
5,CCOC(C)(C)C(=O)N[C@H]1CC[C@H](Oc2cccc3nc(C)c(C(=O)O)c(N)c23)CC1 [Compound 316],A (an enhancement ratio of greater than 1 and less than 10)
6,COCCC(=O)N[C@H]1CC[C@H](Oc2cccc3nc(C)c(C(=O)O)c(N)c23)CC1 [Compound 317],A (an enhancement ratio of greater than 1 and less than 10)
7,CCSCC(=O)N[C@H]1CC[C@H](Oc2cccc3nc(C)c(C(=O)O)c(N)c23)CC1 [Compound 318],A (an enhancement ratio of greater than 1 and less than 10)
8,Cc1nc2cccc(O[C@H]3CC[C@H](NC(=O)CCCC(C)C)CC3)c2c(N)c1C(=O)O [Compound 319],A (an enhancement ratio of greater than 1 and less than 10)
9,Cc1nc2cccc(O[C@H]3CC[C@H](NC(=O)C4CCC4)CC3)c2c(N)c1C(=O)O [Compound 320],B (an enhancement ratio from 10 to 20)
10,Cc1nc2cccc(O[C@H]3CC[C@H](NC(=O)Cc4c[nH]cn4)CC3)c2c(N)c1C(=O)O [Compound 321],A (an enhancement ratio of greater than 1 and less than 10)
11,CCOCC(=O)N[C@H]1CC[C@H](Oc2cccc3nc(CC)c(C(=O)O)c(N)c23)CC1 [Compound 322],A (an enhancement ratio of greater than 1 and less than 10)
12,Cc1nc2cccc(O[C@H]3CC[C@H](NC(=O)CN4CCCC4)CC3)c2c(N)c1C(=O)O [Compound 323],A (an enhancement ratio of greater than 1 and less than 10)
13,Cc1nc2cccc(O[C@H]3CC[C@H](NC(=O)CN(C)C)CC3)c2c(N)c1C(=O)O [Compound 324],A (an enhancement ratio of greater than 1 and less than 10)
14,Cc1nc2cccc(O[C@H]3CC[C@H](NC(=O)Cn4ccnc4)CC3)c2c(N)c1C(=O)O [Compound 325],B (an enhancement ratio from 10 to 20)
15,Cc1nc2cccc(O[C@H]3CC[C@H](NC(=O)CO[C@@H]4C[C@H](C)CC[C@H]4C(C)C)CC3)c2c(N)c1C(=O)O [Compound 328],A (an enhancement ratio of greater than 1 and less than 10)
16,Cc1nc2cccc(O[C@H]3CC[C@H](NC(=O)COCCOC(C)C)CC3)c2c(N)c1C(=O)O [Compound 329],B (an enhancement ratio from 10 to 20)

# Same assay, conditions: 10 μM test compound; sweetener sucralose
row,SMILES,Sucralose Enhancement EC50 Ratio
1,CCSCC(=O)N[C@H]1CC[C@H](Oc2cccc3nc(C)c(C(=O)O)c(N)c23)CC1 [Compound 318],B (an enhancement ratio from 10 to 20)
2,Cc1nc2cccc(O[C@H]3CC[C@H](NC(=O)C4CCC4)CC3)c2c(N)c1C(=O)O [Compound 320],B (an enhancement ratio from 10 to 20)

# Same assay, conditions: 10 μM test compound; sweetener sucrose
row,SMILES,Sucrose Enhancement EC50 Ratio
1,COCC(=O)N[C@H]1CC[C@H](Oc2cccc3nc(C)c(C(=O)O)c(N)c23)CC1 [Compound 304],A (an enhancement ratio of greater than 1 and less than 10)
2,Cc1nc2cccc(O[C@H]3CC[C@H](NC(=O)CO[C@H]4CC[C@H](C)CC4)CC3)c2c(N)c1C(=O)O [Compound 312],B (an enhancement ratio from 10 to 20)
3,Cc1nc2cccc(O[C@H]3CC[C@H](NC(=O)COCC4CC4)CC3)c2c(N)c1C(=O)O [Compound 313],A (an enhancement ratio of greater than 1 and less than 10)
4,CCOC(C)C(=O)N[C@H]1CC[C@H](Oc2cccc3nc(C)c(C(=O)O)c(N)c23)CC1 (some centres unmarked) [Compound 315],C (an enhancement ratio greater than 20)
5,CCOC(C)(C)C(=O)N[C@H]1CC[C@H](Oc2cccc3nc(C)c(C(=O)O)c(N)c23)CC1 [Compound 316],B (an enhancement ratio from 10 to 20)
6,COCCC(=O)N[C@H]1CC[C@H](Oc2cccc3nc(C)c(C(=O)O)c(N)c23)CC1 [Compound 317],B (an enhancement ratio from 10 to 20)
7,CCSCC(=O)N[C@H]1CC[C@H](Oc2cccc3nc(C)c(C(=O)O)c(N)c23)CC1 [Compound 318],B (an enhancement ratio from 10 to 20)
8,Cc1nc2cccc(O[C@H]3CC[C@H](NC(=O)CCCC(C)C)CC3)c2c(N)c1C(=O)O [Compound 319],A (an enhancement ratio of greater than 1 and less than 10)
9,Cc1nc2cccc(O[C@H]3CC[C@H](NC(=O)C4CCC4)CC3)c2c(N)c1C(=O)O [Compound 320],B (an enhancement ratio from 10 to 20)
10,Cc1nc2cccc(O[C@H]3CC[C@H](NC(=O)CO[C@@H]4C[C@H](C)CC[C@H]4C(C)C)CC3)c2c(N)c1C(=O)O [Compound 328],C (an enhancement ratio greater than 20)

# Same assay, conditions: 50 μM test compound; sweetener fructose
row,SMILES,Fructose Enhancement EC50 Ratio
1,CCSCC(=O)N[C@H]1CC[C@H](Oc2cccc3nc(C)c(C(=O)O)c(N)c23)CC1 [Compound 318],A (an enhancement ratio of greater than 1 and less than 10)
